The source of these data is patent US20240245793A1, “PSD-95 INHIBITORS AND USES THEREOF” (priority 2021, published 2024).

The target of one data set is T1, plasmin (Homo sapiens, UniProt P00747).
T1 construct: Tissue plasminogen factor (tPA), which generates plasmin from plasminogen
The experiment in a line: In vitro plasmin stability assay. It is filed as in vitro ADME. The protocol: At selected time points during the incubation, the ligands were extracted from 80 μL of assay matrix by treatment with 80 μL of 50% acetonitrile (ACN). The samples were filtered and analysed by UPLC to determine the amount of ligand remaining. LC-MS analysis was performed to confirm ligand integrity and identify cleavage sites.

Data set [1] can be described thus: In vitro plasma stability in undiluted pooled human plasma. It is filed as in vitro ADME. The following applies: for T1/2: 100 μM ligand, 37° C., mean ± SEM (Table 13, FIG. 10); for half-life at 100 μM: human. On the procedure:
At selected time points during the incubation, the ligands were extracted from the assay matrix by adding assay matrix to 6M Urea followed by precipitation using 20% TCA in acetone. After overnight incubation, the samples were filtered and analysed by UPLC to determine the amount of ligand remaining. LC-MS analysis was performed to confirm ligand integrity and identify cleavage sites.

Another data set concerns the target PDZ1-2 of PSD-95 (Homo sapiens, UniProt P78352). As to the kind of experiment: Fluorescence polarization (FP) competition assay, affinity to PDZ1-2 of PSD-95. It is filed as binding. To be noted: mean ± SEM. On the procedure:
First, a saturation binding curve was obtained to determine KD values for the interaction between a fluorescent dimeric probe and PDZ1-2 of PSD-95. Increasing concentrations of PDZ1-2 (0.015-30 nM) were added to a constant concentration of the probe (0.5 nM). The fluorescence polarization (FP) of the sample was measured at excitation/emission wavelength of 635/670 nm and the generated FP values were fitted to a one site binding model using the software GraphPad Prism. […] The FP values were fitted to a one site competition (variable slope) model in GraphPad prism. The resulting IC50 values were converted to Ki values as described previously by Nikolovska-Coleska et al., Anal. Biochem., 2004, 332, 261).
On the technique in general: In fluorescence polarisation assays a small probe gives low polarisation when free and higher when bound to something large.

A further data set concerns pMCAO mice. The following applies: cited from earlier work.
[2] abbreviates: NPEG4-(KETLV)2 fused to polyArg CPP-tags, n ≥ 3 (Table 7, FIG. 4).
The mark [3] stands for this setting: dimeric ligands fused to L-TAT and L-Arg9, n ≥ 3 (Table 5, FIG. 2).
Where [4] appears, read: isolated enzyme plasmin, read-out: T1/2.

Like-named read-outs stand apart in the source and are kept apart here.

T1 sequence (P00747 581-810 limits assumed, species assumed): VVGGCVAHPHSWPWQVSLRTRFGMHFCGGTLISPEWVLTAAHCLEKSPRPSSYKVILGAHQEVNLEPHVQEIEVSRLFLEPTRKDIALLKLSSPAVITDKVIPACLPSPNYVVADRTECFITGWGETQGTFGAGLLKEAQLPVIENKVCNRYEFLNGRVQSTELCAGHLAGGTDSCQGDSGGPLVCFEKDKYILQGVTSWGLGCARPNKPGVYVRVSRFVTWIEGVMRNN
T1 sequence (P00747 97-580 partner limits assumed, species assumed): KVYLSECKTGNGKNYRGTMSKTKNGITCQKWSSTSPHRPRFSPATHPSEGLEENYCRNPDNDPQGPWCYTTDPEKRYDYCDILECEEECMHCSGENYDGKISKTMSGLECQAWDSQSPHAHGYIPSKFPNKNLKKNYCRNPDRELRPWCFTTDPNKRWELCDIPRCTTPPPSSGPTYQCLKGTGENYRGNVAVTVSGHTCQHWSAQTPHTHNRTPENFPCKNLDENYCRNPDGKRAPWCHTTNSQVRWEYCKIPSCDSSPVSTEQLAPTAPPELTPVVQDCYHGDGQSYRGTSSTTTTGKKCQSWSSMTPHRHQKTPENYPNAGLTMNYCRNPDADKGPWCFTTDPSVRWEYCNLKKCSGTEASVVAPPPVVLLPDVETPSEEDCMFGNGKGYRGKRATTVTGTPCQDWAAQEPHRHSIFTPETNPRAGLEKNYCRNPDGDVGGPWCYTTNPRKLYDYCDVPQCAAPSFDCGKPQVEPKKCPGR
PDZ1-2 of PSD-95, sequence (P78352 61-249 limits assumed): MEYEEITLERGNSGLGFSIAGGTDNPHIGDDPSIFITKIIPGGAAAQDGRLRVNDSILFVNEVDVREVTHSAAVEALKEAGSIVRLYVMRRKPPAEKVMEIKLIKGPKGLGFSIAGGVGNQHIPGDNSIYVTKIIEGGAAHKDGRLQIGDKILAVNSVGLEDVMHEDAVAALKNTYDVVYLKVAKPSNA

As for `CC[C@H](C)[C@H](NC(=O)CCOCCOCCN(CCOCCOCCC(=O)N[C@H](C(=O)N[C@@H](CCC(=O)O)C(=O)N[C@H](C(=O)N[C@@H](CC(=O)O)C(=O)N[C@H](C(=O)O)C(C)C)[C@@H](C)O)[C@@H](C)CC)C(=O)[C@H](CCCNC(=N)N)NC(=O)[C@H](CCCNC(=N)N)NC(=O)[C@H](CCCNC(=N)N)NC(=O)[C@H](CCC(N)=O)NC(=O)[C@H](CCCNC(=N)N)NC(=O)[C@H](CCCNC(=N)N)NC(=O)[C@H](CCCCN)NC(=O)[C@H](CCCCN)NC(=O)[C@H](CCCNC(=N)N)NC(=O)CNC(=O)[C@@H](N)Cc1ccc(O)cc1)C(=O)N[C@@H](CCC(=O)O)C(=O)N[C@H](C(=O)N[C@@H](CC(=O)O)C(=O)N[C@H](C(=O)O)C(C)C)[C@@H](C)O` [Compound 8, L-TAT-NPEG4(IETDV)2, reference compound], the half-life at 100 μM at plasmin (plasmin (5 μg/mL) in PBS, read-out: T1/2) worked out at 9.05 ± 1 h. The same molecule had a T1/2 in data set [1] of 24 ± 0 h.

One may read the Ki as the dissociation constant of the complex between target and ligand, obtained from inhibition or displacement. Low readings indicate a stronger hold on the target, high ones a looser hold on the target. `CC(=O)N[C@@H](CCCNC(=N)N)C(=O)N[C@@H](CCCNC(=N)N)C(=O)N[C@@H](CCCNC(=N)N)C(=O)N[C@@H](CCCNC(=N)N)C(=O)N(CCOCCOCCC(=O)N[C@@H](CCCCN)C(=O)N[C@@H](CCC(=O)O)C(=O)N[C@H](C(=O)N[C@@H](CC(C)C)C(=O)N[C@H](C(=O)O)C(C)C)[C@@H](C)O)CCOCCOCCC(=O)N[C@@H](CCCCN)C(=O)N[C@@H](CCC(=O)O)C(=O)N[C@H](C(=O)N[C@@H](CC(C)C)C(=O)N[C@H](C(=O)O)C(C)C)[C@@H](C)O` [Compound 73] yielded a Ki at PDZ1-2 of PSD-95 (setting [2]) of 11.1 ± 0.9 nM. The same molecule showed a half-life at 100 μM in data set [1] of 15.2 ± 3.6 h.

Take `CC(=O)N[C@@H](CCCNC(=N)N)C(=O)N[C@@H](CCCNC(=N)N)C(=O)N[C@@H](CCCNC(=N)N)C(=O)N[C@@H](CCCNC(=N)N)C(=O)N[C@@H](CCCNC(=N)N)C(=O)N[C@@H](CCCNC(=N)N)C(=O)N[C@@H](CCCNC(=N)N)C(=O)N(CCOCCOCCC(=O)N[C@@H](CCCCN)C(=O)N[C@@H](CCC(=O)O)C(=O)N[C@H](C(=O)N[C@@H](CC(C)C)C(=O)N[C@H](C(=O)O)C(C)C)[C@@H](C)O)CCOCCOCCC(=O)N[C@@H](CCCCN)C(=O)N[C@@H](CCC(=O)O)C(=O)N[C@H](C(=O)N[C@@H](CC(C)C)C(=O)N[C@H](C(=O)O)C(C)C)[C@@H](C)O` [Compound 67]: the T1/2 in data set [1] is 24 ± 0 h.

`CC(=O)N[C@@H](CCCNC(=N)N)C(=O)N[C@@H](CCCNC(=N)N)C(=O)N[C@@H](CCCNC(=N)N)C(=O)N[C@@H](CCCNC(=N)N)C(=O)N[C@@H](CCCNC(=N)N)C(=O)N[C@@H](CCCNC(=N)N)C(=O)N[C@@H](CCCNC(=N)N)C(=O)N[C@@H](CCCNC(=N)N)C(=O)N[C@@H](CCCNC(=N)N)C(=O)N(CCOCCOCCC(=O)N[C@@H](CCCCN)C(=O)N[C@@H](CCC(=O)O)C(=O)N[C@H](C(=O)N[C@@H](CC(C)C)C(=O)N[C@H](C(=O)O)C(C)C)[C@@H](C)O)CCOCCOCCC(=O)N[C@@H](CCCCN)C(=O)N[C@@H](CCC(=O)O)C(=O)N[C@H](C(=O)N[C@@H](CC(C)C)C(=O)N[C@H](C(=O)O)C(C)C)[C@@H](C)O` [Compound 23]: the half-life at 100 μM at plasmin (isolated enzyme plasmin) came out at 43.6 ± 4.6 h. In data set [1], this molecule registered a T1/2 of 24 ± 0 h.

Molecule `CC(=O)N[C@@H](CCCNC(=N)N)C(=O)N[C@@H](CCCNC(=N)N)C(=O)N[C@@H](CCCNC(=N)N)C(=O)N[C@@H](CCCNC(=N)N)C(=O)N[C@@H](CCCNC(=N)N)C(=O)N[C@@H](CCCNC(=N)N)C(=O)N(CCOCCOCCC(=O)N[C@@H](CCCCN)C(=O)N[C@@H](CCC(=O)O)C(=O)N[C@H](C(=O)N[C@@H](CC(C)C)C(=O)N[C@H](C(=O)O)C(C)C)[C@@H](C)O)CCOCCOCCC(=O)N[C@@H](CCCCN)C(=O)N[C@@H](CCC(=O)O)C(=O)N[C@H](C(=O)N[C@@H](CC(C)C)C(=O)N[C@H](C(=O)O)C(C)C)[C@@H](C)O` [Compound 69] came in with a Ki on PDZ1-2 of PSD-95 (setting [2]) of 8.6 ± 0.3 nM. In data set [1], this molecule had a T1/2 of 24 ± 0 h.

On to `CC(=O)N[C@@H](CCCNC(=N)N)C(=O)N[C@@H](CCCNC(=N)N)C(=O)N[C@@H](CCCNC(=N)N)C(=O)N[C@@H](CCCNC(=N)N)C(=O)N[C@@H](CCCNC(=N)N)C(=O)N(CCOCCOCCC(=O)N[C@@H](CCCCN)C(=O)N[C@@H](CCC(=O)O)C(=O)N[C@H](C(=O)N[C@@H](CC(C)C)C(=O)N[C@H](C(=O)O)C(C)C)[C@@H](C)O)CCOCCOCCC(=O)N[C@@H](CCCCN)C(=O)N[C@@H](CCC(=O)O)C(=O)N[C@H](C(=O)N[C@@H](CC(C)C)C(=O)N[C@H](C(=O)O)C(C)C)[C@@H](C)O` [Compound 71], for which the half-life at 100 μM in data set [1] is 21.1 ± 2.3 h.

`CC[C@H](C)[C@H](NC(=O)CCOCCOCCN(CCOCCOCCC(=O)N[C@H](C(=O)N[C@@H](CCC(=O)O)C(=O)N[C@H](C(=O)N[C@@H](CC(=O)O)C(=O)N[C@H](C(=O)O)C(C)C)[C@@H](C)O)[C@@H](C)CC)C(=O)[C@H](CCCNC(=N)N)NC(=O)[C@H](CCCNC(=N)N)NC(=O)[C@H](CCCNC(=N)N)NC(=O)[C@H](CCCNC(=N)N)NC(=O)[C@H](CCCNC(=N)N)NC(=O)[C@H](CCCNC(=N)N)NC(=O)[C@H](CCCNC(=N)N)NC(=O)[C@H](CCCNC(=N)N)NC(=O)[C@H](CCCNC(=N)N)NC(C)=O)C(=O)N[C@@H](CCC(=O)O)C(=O)N[C@H](C(=O)N[C@@H](CC(=O)O)C(=O)N[C@H](C(=O)O)C(C)C)[C@@H](C)O` [Compound 35]: the half-life at 100 μM at plasmin and at plasmin (isolated enzyme plasmin) was 24.9 ± 1.9 h each time. Further, the T1/2 in data set [1] amounted to 24 ± 0 h.

With `CC(=O)N[C@@H](Cc1ccc(O)cc1)C(=O)NCC(=O)N[C@@H](CCCNC(=N)N)C(=O)N[C@@H](CCCCN)C(=O)N[C@@H](CCCCN)C(=O)N[C@@H](CCCNC(=N)N)C(=O)N[C@@H](CCCNC(=N)N)C(=O)N[C@@H](CCC(N)=O)C(=O)N[C@@H](CCCNC(=N)N)C(=O)N[C@@H](CCCNC(=N)N)C(=O)N[C@@H](CCCNC(=N)N)C(=O)N(CCOCCOCCC(=O)N[C@H](C(=O)N[C@@H](CCC(=O)O)C(=O)N[C@H](C(=O)N[C@H](C(=O)N[C@H](C(=O)O)C(C)C)C(C)C)[C@@H](C)O)C(C)C)CCOCCOCCC(=O)N[C@H](C(=O)N[C@@H](CCC(=O)O)C(=O)N[C@H](C(=O)N[C@H](C(=O)N[C@H](C(=O)O)C(C)C)C(C)C)[C@@H](C)O)C(C)C` [Compound 21], the Ki on PDZ1-2 of PSD-95 (setting [3]) came out at 15.8 ± 1.6 nM. The half-life on plasmin (setting [4]) stood at 8.87 ± 0.683 h.

Molecule `CC(=O)N[C@@H](Cc1ccc(O)cc1)C(=O)NCC(=O)N[C@@H](CCCNC(=N)N)C(=O)N[C@@H](CCCCN)C(=O)N[C@@H](CCCCN)C(=O)N[C@@H](CCCNC(=N)N)C(=O)N[C@@H](CCCNC(=N)N)C(=O)N[C@@H](CCC(N)=O)C(=O)N[C@@H](CCCNC(=N)N)C(=O)N[C@@H](CCCNC(=N)N)C(=O)N[C@@H](CCCNC(=N)N)C(=O)N(CCOCCOCCC(=O)N[C@@H](CCCCN)C(=O)N[C@@H](CCC(=O)O)C(=O)N[C@H](C(=O)N[C@H](C(=O)N[C@H](C(=O)O)C(C)C)[C@@H](C)O)[C@@H](C)O)CCOCCOCCC(=O)N[C@@H](CCCCN)C(=O)N[C@@H](CCC(=O)O)C(=O)N[C@H](C(=O)N[C@H](C(=O)N[C@H](C(=O)O)C(C)C)[C@@H](C)O)[C@@H](C)O` [Compound 13] showed a Ki at PDZ1-2 of PSD-95 (setting [3]) of 6.5 ± 0.7 nM. Also, the half-life at plasmin (setting [4]) turned out to be 9.5 ± 3 h.

`CC[C@H](C)[C@H](NC(=O)CCOCCOCCOCCOCCOCCC(=O)N[C@H](C(=O)N[C@@H](CCC(=O)O)C(=O)N[C@H](C(=O)N[C@@H](CC(=O)O)C(=O)N[C@H](C(=O)O)C(C)C)[C@@H](C)O)[C@@H](C)CC)C(=O)N[C@@H](CCC(=O)O)C(=O)N[C@H](C(=O)N[C@@H](CC(=O)O)C(=O)N[C@H](C(=O)O)C(C)C)[C@@H](C)O` [Compound 1, OPEG4-(IETDV)2]: the neuroprotective properties result in the data set with pMCAO mice (mice, pMCAO, same experimental conditions and dose (3 nmol/g)) was “showed no neuroprotective properties”. Besides, the reaching the brain entry with pMCAO mice (mouse, in vivo) is “did not reach the brain”.

With `CC(=O)N[C@@H](Cc1ccc(O)cc1)C(=O)NCC(=O)N[C@@H](CCCNC(=N)N)C(=O)N[C@@H](CCCCN)C(=O)N[C@@H](CCCCN)C(=O)N[C@@H](CCCNC(=N)N)C(=O)N[C@@H](CCCNC(=N)N)C(=O)N[C@@H](CCC(N)=O)C(=O)N[C@@H](CCCNC(=N)N)C(=O)N[C@@H](CCCNC(=N)N)C(=O)N[C@@H](CCCNC(=N)N)C(=O)N(CCOCCOCCC(=O)N[C@@H](CCCCN)C(=O)N[C@@H](CCC(=O)O)C(=O)N[C@H](C(=O)N[C@@H](CC(C)C)C(=O)N[C@H](C(=O)O)C(C)C)[C@@H](C)O)CCOCCOCCC(=O)N[C@@H](CCCCN)C(=O)N[C@@H](CCC(=O)O)C(=O)N[C@H](C(=O)N[C@@H](CC(C)C)C(=O)N[C@H](C(=O)O)C(C)C)[C@@H](C)O` [Compound 11], the affinity on PDZ1-2 of PSD-95 (setting [3]), expressed as Ki, was 5.4 ± 0.9 nM. The half-life on plasmin (setting [4]) was 5.77 ± 1.75 h.
